#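 Following 48 hours of exposure in 96-well plates, responses at five concentrations were used to interpolate endpoints linearly. TGI is the concentration that stops growth completely.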
# How the values were obtained:
# Assay in all cases: growth of human tumour cells (NCI), 48 h
# 786-0 renal = system: 786-0 renal
# A498 renal = system: A498 renal
# A549 NSCLC = system: A549 NSCLC
# ACHN renal = system: ACHN renal
# CAKI-1 renal = system: CAKI-1 renal
# CCRF-CEM leukemia = system: CCRF-CEM leukemia
# DLD-1 colon = system: DLD-1 colon
# DMS 273 small cell lung = system: DMS 273 small cell lung
# EKVX NSCLC = system: EKVX NSCLC
# HOP-18 NSCLC = system: HOP-18 NSCLC
# HOP-92 NSCLC = system: HOP-92 NSCLC
# IGROV1 ovarian = system: IGROV1 ovarian
# K-562 leukemia = system: K-562 leukemia
# KM20L2 colon = system: KM20L2 colon
# LXFL 529 NSCLC = system: LXFL 529 NSCLC
# M14 melanoma = system: M14 melanoma
# MALME-3M melanoma = system: MALME-3M melanoma
# MOLT-4 leukemia = system: MOLT-4 leukemia
# NCI-H460 lung = system: NCI-H460 lung
# NCI-H522 lung = system: NCI-H522 lung
# OVCAR-3 ovarian = system: OVCAR-3 ovarian
# OVCAR-8 ovarian = system: OVCAR-8 ovarian
# RPMI-8226 leukemia = system: RPMI-8226 leukemia
# RXF 393 renal = system: RXF 393 renal
# RXF-631 renal = system: RXF-631 renal
# SF-295 CNS = system: SF-295 CNS
# SF-539 CNS = system: SF-539 CNS
# SK-MEL-5 melanoma = system: SK-MEL-5 melanoma
# SN12C renal = system: SN12C renal
# SR leukemia = system: SR leukemia
# SW-620 colon = system: SW-620 colon
# TK-10 renal = system: TK-10 renal
# UO-31 renal = system: UO-31 renal
# COLO 205 colon = system: COLO 205 colon
# DMS 114 small cell lung = system: DMS 114 small cell lung
# HCC-2998 colon = system: HCC-2998 colon
# HCT-116 colon = system: HCT-116 colon
# HCT-15 colon = system: HCT-15 colon
# HL-60(TB) leukemia = system: HL-60(TB) leukemia
# HOP-62 NSCLC = system: HOP-62 NSCLC
# HT29 colon = system: HT29 colon
# KM12 colon = system: KM12 colon
# LOX IMVI melanoma = system: LOX IMVI melanoma
# M19-MEL melanoma = system: M19-MEL melanoma
# NCI-H226 lung = system: NCI-H226 lung
# NCI-H23 lung = system: NCI-H23 lung
# OVCAR-4 ovarian = system: OVCAR-4 ovarian
# OVCAR-5 ovarian = system: OVCAR-5 ovarian
# SF-268 CNS = system: SF-268 CNS
# SK-MEL-2 melanoma = system: SK-MEL-2 melanoma
# SK-MEL-28 melanoma = system: SK-MEL-28 melanoma
# SK-OV-3 ovarian = system: SK-OV-3 ovarian
# SNB-19 CNS = system: SNB-19 CNS
# SNB-75 CNS = system: SNB-75 CNS
# SNB-78 CNS = system: SNB-78 CNS
# U251 CNS = system: U251 CNS
# UACC-257 melanoma = system: UACC-257 melanoma
# UACC-62 melanoma = system: UACC-62 melanoma
# XF 498 CNS = system: XF 498 CNS
compound,measurement,setting,value
CC(C)(C)OC(=O)N1N=NC2C3CC(=O)C(O3)C21 (configuration not stated),TGI,786-0 renal,> 100 µM
same,TGI,A498 renal,> 100 µM
same,TGI,A549 NSCLC,> 100 µM
same,TGI,ACHN renal,> 100 µM
same,TGI,CAKI-1 renal,> 100 µM
same,TGI,CCRF-CEM leukemia,> 100 µM
same,TGI,DLD-1 colon,> 100 µM
same,TGI,DMS 273 small cell lung,> 100 µM
same,TGI,EKVX NSCLC,> 100 µM
same,TGI,HOP-18 NSCLC,> 100 µM
same,TGI,HOP-92 NSCLC,> 100 µM
same,TGI,IGROV1 ovarian,> 100 µM
same,TGI,K-562 leukemia,> 100 µM
same,TGI,KM20L2 colon,> 100 µM
same,TGI,LXFL 529 NSCLC,> 100 µM
same,TGI,M14 melanoma,> 100 µM
same,TGI,MALME-3M melanoma,> 100 µM
same,TGI,MOLT-4 leukemia,> 100 µM
same,TGI,NCI-H460 lung,> 100 µM
same,TGI,NCI-H522 lung,> 100 µM
same,TGI,OVCAR-3 ovarian,> 100 µM
same,TGI,OVCAR-8 ovarian,> 100 µM
same,TGI,RPMI-8226 leukemia,> 100 µM
same,TGI,RXF 393 renal,> 100 µM
same,TGI,RXF-631 renal,> 100 µM
same,TGI,SF-295 CNS,> 100 µM
same,TGI,SF-539 CNS,> 100 µM
same,TGI,SK-MEL-5 melanoma,> 100 µM
same,TGI,SN12C renal,> 100 µM
same,TGI,SR leukemia,> 100 µM
same,TGI,SW-620 colon,> 100 µM
same,TGI,TK-10 renal,> 100 µM
same,TGI,UO-31 renal,> 100 µM
O=c1[nH]c(=S)[nH]c(O)c1/C=C1\C=CC=N1,TGI,786-0 renal,24.8 µM
same,TGI,A498 renal,84.3 µM
same,TGI,A549 NSCLC,> 100 µM
same,TGI,ACHN renal,29.6 µM
same,TGI,CAKI-1 renal,25.6 µM
same,TGI,CCRF-CEM leukemia,75.5 µM
same,TGI,COLO 205 colon,32 µM
same,TGI,DLD-1 colon,22 µM
same,TGI,DMS 114 small cell lung,23.3 µM
same,TGI,DMS 273 small cell lung,25.3 µM
same,TGI,EKVX NSCLC,56.7 µM
same,TGI,HCC-2998 colon,25 µM
same,TGI,HCT-116 colon,18.7 µM
same,TGI,HCT-15 colon,14.8 µM
same,TGI,HL-60(TB) leukemia,> 100 µM
same,TGI,HOP-18 NSCLC,85.7 µM
same,TGI,HOP-62 NSCLC,97.6 µM
same,TGI,HOP-92 NSCLC,36.1 µM
same,TGI,HT29 colon,54.2 µM
same,TGI,IGROV1 ovarian,65 µM
same,TGI,K-562 leukemia,> 100 µM
same,TGI,KM12 colon,39.6 µM
same,TGI,KM20L2 colon,41.1 µM
same,TGI,LOX IMVI melanoma,46.2 µM
same,TGI,LXFL 529 NSCLC,21.9 µM
same,TGI,M14 melanoma,54.8 µM
same,TGI,M19-MEL melanoma,> 100 µM
same,TGI,MALME-3M melanoma,34.4 µM
same,TGI,MOLT-4 leukemia,44.3 µM
same,TGI,NCI-H226 lung,33.4 µM
same,TGI,NCI-H23 lung,40 µM
same,TGI,NCI-H460 lung,65.5 µM
same,TGI,NCI-H522 lung,3.59 µM
same,TGI,OVCAR-3 ovarian,21.8 µM
same,TGI,OVCAR-4 ovarian,32 µM
same,TGI,OVCAR-5 ovarian,47 µM
same,TGI,OVCAR-8 ovarian,17.9 µM
same,TGI,RPMI-8226 leukemia,23 µM
same,TGI,RXF 393 renal,9.6 µM
same,TGI,SF-268 CNS,55.1 µM
same,TGI,SF-295 CNS,82.4 µM
same,TGI,SF-539 CNS,40.5 µM
same,TGI,SK-MEL-2 melanoma,51.4 µM
same,TGI,SK-MEL-28 melanoma,48.5 µM
same,TGI,SK-MEL-5 melanoma,> 100 µM
same,TGI,SK-OV-3 ovarian,> 100 µM
same,TGI,SN12C renal,22.5 µM
same,TGI,SNB-19 CNS,> 100 µM
same,TGI,SNB-75 CNS,42.5 µM
same,TGI,SNB-78 CNS,67.4 µM
same,TGI,SR leukemia,18 µM
same,TGI,SW-620 colon,23.5 µM
same,TGI,TK-10 renal,37.7 µM
same,TGI,U251 CNS,89.2 µM
same,TGI,UACC-257 melanoma,72.4 µM
same,TGI,UACC-62 melanoma,35.6 µM
same,TGI,UO-31 renal,31.2 µM
same,TGI,XF 498 CNS,32.3 µM
O=c1cccccc1NCCCCNc1cccccc1=O,TGI,786-0 renal,> 100 µM
same,TGI,A498 renal,> 100 µM
same,TGI,A549 NSCLC,> 100 µM
same,TGI,ACHN renal,> 100 µM
same,TGI,CAKI-1 renal,> 100 µM
same,TGI,CCRF-CEM leukemia,> 100 µM
same,TGI,COLO 205 colon,> 100 µM
same,TGI,DLD-1 colon,> 100 µM
same,TGI,DMS 114 small cell lung,> 100 µM
same,TGI,DMS 273 small cell lung,> 100 µM
same,TGI,EKVX NSCLC,> 100 µM
same,TGI,HCC-2998 colon,> 100 µM
same,TGI,HCT-116 colon,> 100 µM
same,TGI,HCT-15 colon,> 100 µM
same,TGI,HL-60(TB) leukemia,> 100 µM
same,TGI,HOP-18 NSCLC,> 100 µM
same,TGI,HOP-62 NSCLC,> 100 µM
same,TGI,HT29 colon,> 100 µM
same,TGI,IGROV1 ovarian,> 100 µM
same,TGI,K-562 leukemia,> 100 µM
same,TGI,KM12 colon,> 100 µM
same,TGI,KM20L2 colon,> 100 µM
same,TGI,LOX IMVI melanoma,> 100 µM
same,TGI,LXFL 529 NSCLC,> 100 µM
same,TGI,M14 melanoma,> 100 µM
same,TGI,M19-MEL melanoma,> 100 µM
same,TGI,MALME-3M melanoma,> 100 µM
same,TGI,MOLT-4 leukemia,> 100 µM
same,TGI,NCI-H226 lung,> 100 µM
same,TGI,NCI-H23 lung,> 100 µM
same,TGI,NCI-H460 lung,> 100 µM
same,TGI,NCI-H522 lung,> 100 µM
same,TGI,OVCAR-3 ovarian,> 100 µM
same,TGI,OVCAR-4 ovarian,> 100 µM
same,TGI,OVCAR-5 ovarian,> 100 µM
same,TGI,OVCAR-8 ovarian,> 100 µM
same,TGI,RPMI-8226 leukemia,> 100 µM
same,TGI,RXF-631 renal,> 100 µM
same,TGI,SF-268 CNS,> 100 µM
same,TGI,SF-295 CNS,> 100 µM
same,TGI,SK-MEL-2 melanoma,> 100 µM
same,TGI,SK-MEL-28 melanoma,> 100 µM
same,TGI,SK-MEL-5 melanoma,96.8 µM
same,TGI,SK-OV-3 ovarian,> 100 µM
same,TGI,SN12C renal,> 100 µM
same,TGI,SNB-19 CNS,> 100 µM
same,TGI,SNB-75 CNS,> 100 µM
same,TGI,SNB-78 CNS,> 100 µM
same,TGI,SW-620 colon,> 100 µM
same,TGI,TK-10 renal,> 100 µM
same,TGI,U251 CNS,> 100 µM
same,TGI,UACC-257 melanoma,> 100 µM
same,TGI,UACC-62 melanoma,> 100 µM
same,TGI,UO-31 renal,> 100 µM
COc1cc([C@H]2Oc3c(c(O)cc4oc(-c5ccccc5)cc(=O)c34)O[C@@H]2CO)ccc1O,TGI,786-0 renal,> 100 µM
same,TGI,A498 renal,> 100 µM
same,TGI,CAKI-1 renal,> 100 µM
same,TGI,CCRF-CEM leukemia,23.7 µM
same,TGI,COLO 205 colon,> 100 µM
same,TGI,DLD-1 colon,56.4 µM
same,TGI,DMS 114 small cell lung,> 100 µM
same,TGI,DMS 273 small cell lung,25 µM
same,TGI,HCC-2998 colon,> 100 µM
same,TGI,HCT-116 colon,> 100 µM
same,TGI,HL-60(TB) leukemia,36.2 µM
same,TGI,HOP-62 NSCLC,> 100 µM
same,TGI,HOP-92 NSCLC,87.6 µM
same,TGI,IGROV1 ovarian,> 100 µM
same,TGI,K-562 leukemia,> 100 µM
same,TGI,LXFL 529 NSCLC,> 100 µM
same,TGI,M14 melanoma,38.5 µM
same,TGI,M19-MEL melanoma,> 100 µM
same,TGI,MALME-3M melanoma,83.4 µM
same,TGI,NCI-H226 lung,> 100 µM
same,TGI,NCI-H23 lung,> 100 µM
same,TGI,NCI-H460 lung,32.5 µM
same,TGI,NCI-H522 lung,> 100 µM
same,TGI,OVCAR-4 ovarian,> 100 µM
same,TGI,RXF-631 renal,62.7 µM
same,TGI,SF-268 CNS,> 100 µM
same,TGI,SF-539 CNS,> 100 µM
same,TGI,SK-MEL-2 melanoma,57.6 µM
same,TGI,SK-MEL-28 melanoma,> 100 µM
same,TGI,SK-OV-3 ovarian,> 100 µM
same,TGI,SN12C renal,> 100 µM
same,TGI,SNB-75 CNS,> 100 µM
same,TGI,SNB-78 CNS,> 100 µM
same,TGI,SR leukemia,36.7 µM
same,TGI,UACC-62 melanoma,> 100 µM
same,TGI,UO-31 renal,> 100 µM
same,TGI,XF 498 CNS,> 100 µM

# Reference: PubChem BioAssay (NCI)
